{"source": "paper PMC11874007", "about": "“Switching Roles—Exploring Concentration-Dependent Agonistic versus Antagonistic Behavior of Integrin Ligands” (Journal of Medicinal Chemistry, 2025)", "format_in_all_cases": "cell-based", "key": {"[1]": {"test_system": "FAK, p-FAK, p44/42erk-1/2, p-p44/42erk-1/2 in αvβ3+ M21 cells", "assay": "Western blot of FAK and p44/42erk-1/2 expression and activation, M21 cells", "procedure": "(§1) Since agonistic ligand performance requires integrin activation and signaling, by Western blot analysis, we studied whether the different ligands alter the expression levels and activation states of FAK and p44/42^(erk-1/2). For this, the respective target integrin-expressing tumor cell types were incubated with the corresponding subtype-selective ligand at a concentration of 1 μM for 24 h (Figure 8). […] Signal intensities of FAK and p44/42^(erk-1/2) expression and activation (p-FAK and p-p44/42^(erk-1/2)) on Western blots were evaluated by densitometry. Data are depicted as GAPDH-normalized fluorescence signal intensities as n-fold, by setting values obtained for the respective untreated cells to “1”. […] MAPK p44/42^(erk-1/2) expression was approximately 2.2-fold augmented, p44/42^(erk-1/2) by approximately 2.5-fold. It also raised activation of p-FAK and p-p44/42^(erk-1/2) by approximately 2.2-fold and 3.1-fold, respectively, in α5β1+ OV-MZ-6 cells. […] Additionally, it raised FAK (approximately 1.7-fold) and p-p44/42^(erk-1/2) (approximately 2.4-fold) in α5β1+ OV-MZ-6 cells.\n(§2) Figure 8 Effects of ligands on cellular expression and activation of integrin-related signaling molecules FAK and p44/42^(erk-1/2). […] Signal intensities for FAK and p-FAK, respectively, were evaluated by use of the Bio-Rad Imager Gel Doc XR+ and a ChemiDoc XRS+ Systems and the software Image Lab. Shown are typical representative Western blot images and the corresponding histograms depicting GAPDH-normalized signal intensities as n-fold by setting the values obtained for untreated cells to “1” (drawn as black line). For each cell line, cutouts of identical gels are depicted.\n(§3) In order to capture early and transient changes in signaling activation following ligand treatment, we next reduced the observation periods to 5, 30, or 60 min and assessed FAK expression and activation. […] Depicted are typical Western blot images and the corresponding densitometrical evaluations of GAPDH-normalized signal intensities as n-fold, by setting that of the respective untreated cell type to “1” (Figure 9). […]\n(§4) The kinases (p-)p44/42^(erk-1/2) and (p-)FAK were detected as previously published.[15],[8] Briefly, cells were grown for 18 h on six-well plates in DMEM (0.45 Mio cells/well). After medium exchange, fresh medium with L1–L5 (concentration: 1.0 μM, 2 mL/well) was added, and cells were incubated for another 24 h at 37 °C. In a second series, cells were incubated with L1–L5 (1 μM or 1 nM) for 5, 30, or 60 min. Thereafter, the cellular proteins were extracted and processed by Western blotting. Proteins were visualized using the Pierce ECL chemiluminescent substrate (Thermo Fisher Scientific). Band signal intensities for (p-)p44/42^(erk-1/2) and (p-)FAK were evaluated using the Bio-Rad Imager Gel Doc XR + and ChemiDoc XRS + Systems and the software Image Lab. Differences in protein loading and blotting efficiency were normalized by reprobing the membranes with a monoclonal antibody directed to GAPDH. Signal intensities for protein bands of interest were normalized to those recorded for GAPDH. Typical Western blot images are depicted together with histograms summarizing the mean values of normalized fluorescence signal intensities as n-fold, by setting those obtained for untreated cells to “1”."}, "[2]": {"test_system": "FAK, p-FAK, p44/42erk-1/2, p-p44/42erk-1/2 in α5β1+ OV-MZ-6 cells", "assay": "Western blot of FAK and p44/42erk-1/2 expression and activation, OV-MZ-6 cells", "conditions": "for p-FAK, transient elevation, n-fold of untreated cells: concentration not specified", "procedure": "as §1, §2, §3, §4"}, "αvβ3+ M21 cells": {"test_system": "αvβ3+ M21 cells", "assay": "Wound scratch cell migration assay, M21 cells", "procedure": "(§5) As a biological readout for integrin signaling, we analyzed ligand effects on cell adhesion and migration by wound scratch assays (Figure 10A,B). […] Microscopical images were taken directly after wounding the cell monolayers and then after 9, 24, 48, and 72 h, respectively.\n(§6) Figure 10 (A) Effect of integrin ligands on cancer cell migration. […] Microscopical measurements of wound gaps were taken directly after setting the wound scratch and then after 9, 24, 48, and 72 h, respectively. Wound scratch assays were repeated at least three times. The extent of wound gap closure [%]/cell coverage was calculated by a python script utilizing Canny’s Edge Detection algorithm as described under Materials and summarized in the corresponding histograms (see also Scheme S5 in the Supporting Information). (B) Adhesion of M21, OV-MZ-6, and HN cells in the presence of the respective integrin targeting ligand at low (1 nM) and high (1 μM) concentrations. […] Depicted are typical microscopical images of the respective cell monolayers.\n(§7) The assays were performed according to a modified protocol as previously published.[94] Cells were cultivated on fibronectin-coated 12-well cell culture plates until cell monolayers reached an approximately 80% confluency. Then, the wound scratch was set utilizing a 200 μL pipet tip. Subsequently, fresh culture medium was added in the absence or presence of L1–L5 (concentration: 1 μM or 1 nM), and microscopical images (Zeiss, Oberkochen, Germany) were taken at two identical positions of the wound gap directly after wounding and then at 9, 24, 48, or 72 h of further cell cultivation. Each wound scratch assay was repeated three times. A custom python script was implemented to analyze wound gap closure over time: after cropping the images, we used the OpenCV[95] implementation of Canny’s Edge Detection Algorithm[96] to ensure reliable measurements even with variable lighting conditions.[97] As a first step, a 5 × 5 Gaussian filter was applied to remove background noise. The smoothened images were then filtered by a Sobel kernel[98] and the magnitude and direction of the intensity gradient of the images calculated. Then, a non-maximum suppression algorithm was applied to identify relevant pixels that presumably contribute to edges. In a final step, threshold hysteresis was utilized to distinguish true edges from variations in intensity or the remaining background noise. The resulting images were then segmented and binarized by use of a grid filter and analyzed with respect to cell-covered area relative to the start image of each series."}, "α5β1+ OV-MZ-6 cells": {"test_system": "α5β1+ OV-MZ-6 cells", "assay": "Wound scratch cell migration assay, OV-MZ-6 cells", "conditions": "for Effect on wound gap closure / cell migration: OV-MZ-6 cells", "procedure": "as §5, §6, §7\nScheme S5. Effect of integrin ligands on cancer cell migration (control cells to Fig. 10A in the main manuscript). a) Integrin αvβ3- OV-MZ-6 cells, α5β1- M21 cells, α5β1+ and αvβ3- and […]\nmages of wound gaps were taken directly after setting the wound scratch and then after […], respectively. Wound scratch assays were repeated at least 3 times. The extent of wound gap closure [%]/cell coverage was calculated by a python script utilizing Canny’s Edge Detection algorithm11 as described in the Experimental Section and summarized in the corresponding histograms.\n(1 picture or pasted object on this page, not shown here)"}, "[3]": {"conditions": "concentration not specified or both, within 60 min"}}}
{"molecule": "C#CCCC(=O)NCCCOc1ccc(C(=O)N[C@H](CC(=O)O)Cc2ccc(OCCCNc3cc(OC)ccn3)cc2)cc1", "note": "[L1, (S)-4-(4-(3-((4-Methoxypyridin-2-yl)amino)propoxy)phenyl)-3-(4-(3-(pent-4-ynamido)propoxy)benzamido)butanoic Acid]", "values": [{"measurement": "FAK expression versus untreated cells", "setting": "[1]; 1 nM, 5, 30 or 60 min", "value": "transient and slight increase"}, {"measurement": "p-FAK expression", "setting": "[1]; 1 nM, 5, 30 or 60 min", "value": "always prominently higher than that at 1 μM"}, {"measurement": "FAK expression versus untreated cells", "setting": "[1]; 1 μM, 5, 30 or 60 min", "value": "remained below that in untreated cells"}, {"measurement": "FAK expression, n-fold of untreated cells", "setting": "[1]; 1 μM, 24 h, GAPDH-normalized", "value": "doubled"}, {"measurement": "p-FAK expression, n-fold of untreated cells", "setting": "[1]; 1 μM, 24 h, GAPDH-normalized", "value": "slightly reduced"}, {"measurement": "FAK, n-fold of untreated cells", "setting": "[2]; 1 μM, 24 h, GAPDH-normalized", "value": "approximately 1.7 fold"}, {"measurement": "p-p44/42erk-1/2, n-fold of untreated cells", "setting": "[2]; 1 μM, 24 h, GAPDH-normalized", "value": "approximately 2.4 fold"}, {"measurement": "FAK expression versus untreated cells", "setting": "[2]; [3]", "value": "transient slight increase"}, {"measurement": "p-FAK, transient elevation, n-fold of untreated cells", "setting": "[2]; within 60 min", "value": "approximately twofold"}, {"measurement": "Effect on wound gap closure / cell migration", "setting": "αvβ3+ M21 cells; 1 nM", "value": "enhanced wound gap closure"}, {"measurement": "Effect on wound gap closure / cell migration", "setting": "αvβ3+ M21 cells; 1 μM", "value": "less effective than cilengitide (L2) in blocking cell migration"}, {"measurement": "Cell coverage (wound gap closure)", "setting": "αvβ3+ M21 cells; 1 μM, within 72 h", "value": "approximately 80%"}, {"measurement": "Effect on wound gap closure / cell migration", "setting": "α5β1+ OV-MZ-6 cells; 1 nM", "value": "not observed"}, {"measurement": "Effect on wound gap closure / cell migration", "setting": "α5β1+ OV-MZ-6 cells; 1 μM", "value": "more efficient blockade of cell migration than in M21 cells"}]}
{"molecule": "C#CCCC(=O)NCCCOc1cc(C)c(C(=O)N[C@@H](CNC(=O)CNC(=O)c2cccc(NC(=N)N)c2)C(=O)O)c(C)c1", "note": "[L5, (S)-2-(2,6-Dimethyl-4-(3-(pent-4-ynamido)propoxy)benzamido)-3-(2-(3-guanidinobenzamido)acetamido)propanoic Acid]", "values": [{"measurement": "(p-)p-44/42erk-1/2", "setting": "[1]; 1 μM, 24 h", "value": "unexpectedly increased"}, {"measurement": "p-FAK levels versus untreated cells", "setting": "[1]; both concentrations (1 nM, 1 μM), up to 60 min", "value": "equal or slightly higher than those in untreated cells"}, {"measurement": "FAK levels, n-fold of untreated cells", "setting": "[2]; 1 nM, 5, 30 or 60 min", "value": "approximately 1.6 fold"}, {"measurement": "p-FAK, highest or initial elevation, n-fold of untreated cells", "setting": "[2]; 1 nM, 5, 30 or 60 min", "value": "approximately threefold"}, {"measurement": "p-FAK, highest induction at 30 min, n-fold of untreated cells", "setting": "[2]; 1 μM", "value": "approximately fourfold"}, {"measurement": "FAK expression versus untreated cells", "setting": "[2]; 1 μM, 5, 30 or 60 min", "value": "equal to or only slightly higher than that in untreated cells"}, {"measurement": "(p-)FAK and (p-)p-44/42erk-1/2", "setting": "[2]; 1 μM, 24 h", "value": "did not modulate"}, {"measurement": "Effect on wound gap closure / cell migration", "setting": "αvβ3+ M21 cells; 1 nM", "value": "did not alter their migratory capacity"}, {"measurement": "Effect on wound gap closure / cell migration", "setting": "αvβ3+ M21 cells; 1 μM", "value": "no abrogation of cell migration was observed"}, {"measurement": "Effect on wound gap closure / cell migration", "setting": "α5β1+ OV-MZ-6 cells; 1 nM", "value": "did not alter their migratory capacity"}, {"measurement": "Effect on wound gap closure / cell migration", "setting": "α5β1+ OV-MZ-6 cells; 1 μM", "value": "blocked migration"}]}
{"molecule": "c(FRGDLAFp(NMe)K) [L3]", "values": [{"measurement": "FAK expression versus untreated cells", "setting": "[2]; [3]", "value": "no effect"}, {"measurement": "p-FAK, transient elevation, n-fold of untreated cells", "setting": "[2]; within 60 min", "value": "approximately 2.9 fold"}, {"measurement": "Effect on wound gap closure", "setting": "α5β1+ OV-MZ-6 cells; αvβ6- OV-MZ-6 cells, concentration not specified", "value": "delayed wound gap closure"}]}
